Tests used:
Format in all cases: cell-based
[1] = tested on: DLD1 (colon cancer); experiment: IC50 against tumor cell line DLD1, CellTiter-Glo cell viability; conditions: DLD1 cells, 96 hours, mean ± standard deviation of triplicate
Procedure: (§1) Example 11: evaluation of the therapeutic efficacy of the compounds of the invention.
(§2) Tests were carried out to determine the inhibitory concentration (IC50) of the compounds of the invention against tumor cell lines and on a control cell line; for comparison, the same tests were carried out with the cisplatin compound.
(§3) The cell lines tested were: A2780 and A2780cis, (ovarian cancer), MDA-MB231 (triple-negative breast cancer) and DLD1 (colon cancer) and MRC-5 (control; lung fibroblasts).
(§4) The stock solutions were obtained in dimethyl sulfoxide for compounds I-X and in H^20 for cisplatin.
(§5) The cells were kept, in accordance with the protocols indicated by the suppliers, at 37° C. in an atmosphere containing 5% carbon dioxide. About 500 cells were plated on 96 different wells and kept under such conditions for 96 hours.
(§6) Cell viability was determined, after treatment of the cells with a 1:1 solution of CellTiter-Glo® (registered trademark of Promega Corp., Madison, Wisconsin, USA) and DPBS, with the Tecan Infinite® M1000 instrument. IC50 values were calculated from dose response curves. The means and standard deviations were obtained from tripled measurements.

[2] = tested on: A2780cis (ovarian cancer); experiment: IC50 against tumor cell line A2780cis, CellTiter-Glo cell viability
Procedure: as §1, §2, §3, §4, §5, §6

[3] = tested on: MRC-5 (control; lung fibroblasts); experiment: IC50 on control cell line MRC-5, CellTiter-Glo cell viability; conditions: MRC-5 normal cells
Procedure: as §1, §2, §3, §4, §5, §6

[4] = tested on: A2780 (ovarian cancer); experiment: IC50 against tumor cell line A2780, CellTiter-Glo cell viability; conditions: A2780 cells, 96 hours, mean ± standard deviation of triplicate
Procedure: as §1, §2, §3, §4, §5, §6

[5] = tested on: MDA-MB231 (triple-negative breast cancer); experiment: IC50 against tumor cell line MDA-MB231, CellTiter-Glo cell viability; conditions: MDA-MB231 cells, 96 hours, mean ± standard deviation of triplicate
Procedure: as §1, §2, §3, §4, §5, §6

| SMILES | IC50 [1] [µM] | IC50 ([2]; A2780cis cells, 96 hours, mean ± standard deviation of triplicate, read-out: IC50 (μM) A2780 cis) [µM] | IC50 ([3]; 96 hours, mean ± standard deviation of triplicate) [µM] | IC50 [4] [µM] | IC50 [5] [µM] | loss of activity between the two lines (A2780 to A2780cis) ([2]; A2780 vs A2780cis) | activity against normal cells (MRC-5), in words [3] |
| --- | --- | --- | --- | --- | --- | --- | --- |
| N.N.[Cl][Pt][Cl] [CISPLATIN, cis-diaminodichloroplatin (II)] | 0.63 ± 0.08 | 27 ± 5 | 8 ± 1 | 0.4 ± 0.1 | 37 ± 9 | – | – |
| COC(=O)/C(C)=C(C(=O)OC)/C(C(=O)OC)=[C](/C(=O)OC)[Pd]1([Cl])[CH]2N(Cc3ccccc3)C=CN2CN2C=CN(Cc3ccccc3)[CH]21 (stereo not shown) [Compound VII] | – | – | – | – | – | ca. one order of magnitude | substantially inactive |

From patent publication US20240270776A1, “PALLADIUM VINYL AND BUTADIENYL COMPOUNDS AS CHEMOTHERAPEUTIC AGENTS” (UNIVERSITÀ CA' FOSCARI VENEZIA, priority 2021, published 2024)
